According to patent publication US20240166660A1, “KRAS G12C INHIBITORS” (BeiGene Switzerland GmbH, priority 2021, published 2024):

Target: KRAS (aa 1-169) G12C, C51S, C80L, C118S (Homo sapiens (Human), UniProt P01116, C118S/C51S/C80L/G12C)
Assay: Biochemical functional assay: SOS1-mediated nucleotide exchange of GDP-loaded KRAS G12C, binding to GST-cRaf RBD, FRET readout
Settings: 3 hrs pre-incubation with compound at 24° C., SOS1, GTPyS, inhibition of nucleotide exchange
Description: Biochemical Functional Assay
The KRAS (aa 1-169) G12C, C51S, C80L, C118S with a His-tag was expressed, purified and loaded with GDP in house. All protein and substrate solutions were prepared in assay buffer containing 25 mM HEPES pH7.5, 10 mM MgCl2, and 0.01% Triton X-100. Purified GDP-loaded KRAS (aa 1-169) G12C, C51S, C80L, C118S protein was pre-incubated with a serially diluted compound at 24° C. for 3 hrs. Purified SOS1 (aa 564-1049) protein, GTPyS (Sigma) and GST-cRaf RBD (aa 1-149) were then added to each well and incubated at 24° C. for additional 3 hrs. […] Following the incubation, Mab Anti-6HIS-T cryptate (Cisbio) and Mab Anti GST-XL665 (Cisbio) were added and further incubated at 24° C. for 3 hrs. The binding interaction between active GTPyS KRAS G12C and GST-cRaf RBD brings the Tb and XL665 into close proximity enabling an increased FRET signal (Ex337 nm, Em665 nm/620 nm). The inhibition percentage of nucleotide exchange reaction in presence of increasing concentrations of compounds was calculated based on the ratio of fluorescence at 665 nm to that at 620 nm detected on a BMG PHERAstar FSX instrument. The IC50 value of each compound was calculated from fitting the data to the four-parameter logistic model by Dotmatics.

Chain of KRAS (aa 1-169) G12C, C51S, C80L, C118S (P01116 other isoform, or with tags, fused parts or gaps G12C/C51S/C80L/C118S): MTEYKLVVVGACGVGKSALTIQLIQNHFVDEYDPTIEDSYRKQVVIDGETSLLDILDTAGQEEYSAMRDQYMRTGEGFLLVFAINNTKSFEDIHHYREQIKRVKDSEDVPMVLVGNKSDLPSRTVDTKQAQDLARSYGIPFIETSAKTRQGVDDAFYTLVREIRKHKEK

Row | SMILES | IC50
1 | C=C(F)C(=O)N1CCN(c2nc(OCC3C[C@@H](OC)CN3C)nc3cc(-c4cccc5cccc(Cl)c45)c4c(c23)OCCC4)C[C@@H]1CC#N (mixture of isomers) [Compound B93, 2-((2S)-4-(5-(8-chloronaphthalen-1-yl)-8-(((4R)-4-methoxy-1-methylpyrrolidin-2-yl)methoxy)-3,4-dihydro-2H-pyrano[2,3-f]quinazolin-10-yl)-1-(2-fluoroacryloyl)piperazin-2-yl)acetonitrile] | 11 nM
2 | C=CC(=O)N1CCN(c2ncnc3cc(-c4c(Cl)ccc5[nH]ncc45)c4c(c23)OCCC4)C[C@@H]1CC#N (single isomer, unassigned) [Compound A14] | 79.4 nM
3 | C=CC(=O)N1CCN(c2ncnc3cc(-c4c(Cl)ccc5[nH]ncc45)c4c(c23)OCCC4)C[C@@H]1CC#N (single isomer, unassigned) [Compound A15] | 92.6 nM
4 | C=C(F)C(=O)N1CCN(c2nc(OC[C@@H]3CCCN3C)nc3cc(-c4cccc5cccc(Cl)c45)c4c(c23)OCCC4)C[C@@H]1CC#N (single isomer, unassigned) [Compound B67] | 4.6 nM
5 | C=C(F)C(=O)N1CCN(c2nc(OC[C@@H]3CCCN3C)nc3cc(-c4cccc5cccc(Cl)c45)c4c(c23)OCCC4)C[C@@H]1CC#N (single isomer, unassigned) [Compound B68] | 177 nM
6 | C=C(F)C(=O)N1CCN(c2nc(N3CC(CC#N)(N(C)C)C3)nc3cc(-c4cccc5cccc(Cl)c45)c4c(c23)OCCC4)C[C@@H]1CC#N (single isomer, unassigned) [Compound B91] | 15 nM
7 | C=C(F)C(=O)N1CCN(c2nc(N3CC(CC#N)(N(C)C)C3)nc3cc(-c4cccc5cccc(Cl)c45)c4c(c23)OCCC4)C[C@@H]1CC#N (single isomer, unassigned) [Compound B92] | 381 nM
8 | C=C(F)C(=O)N1CCN(c2nc(OCC3C[C@@H](OC)CN3C)nc3cc(-c4cccc5cccc(Cl)c45)c4c(c23)OCCC4)C[C@@H]1CC#N (single isomer, unassigned) [Compound B94] | 4.63 nM
9 | C=C(F)C(=O)N1CCN(c2nc(OCC3C[C@@H](OC)CN3C)nc3cc(-c4cccc5cccc(Cl)c45)c4c(c23)OCCC4)C[C@@H]1CC#N (single isomer, unassigned) [Compound B95] | 11.5 nM
10 | C=C(F)C(=O)N1CCN(c2nc(OCC3C[C@@H](OC)CN3C)nc3cc(-c4cccc5cccc(Cl)c45)c4c(c23)OCCC4)C[C@@H]1CC#N (single isomer, unassigned) [Compound B96] | 140 nM
11 | C=C(F)C(=O)N1CCN(c2nc(OCC3C[C@@H](OC)CN3C)nc3cc(-c4cccc5cccc(Cl)c45)c4c(c23)OCCC4)C[C@@H]1CC#N (single isomer, unassigned) [Compound B97] | 508 nM
12 | C=C(F)C(=O)N1CCN(c2nc(N3CC(N(C)C)C3)nc3cc(-c4cccc5cccc(Cl)c45)c4c(c23)OCCC4)C[C@@H]1CC#N (single isomer, unassigned) [Compound B101] | 6.53 nM
13 | C=C(F)C(=O)N1CCN(c2nc(N3CC(N(C)C)C3)nc3cc(-c4cccc5cccc(Cl)c45)c4c(c23)OCCC4)C[C@@H]1CC#N (single isomer, unassigned) [Compound B102] | 354 nM
14 | C=C(F)C(=O)N1CCN(c2nc(OC[C@H]3CCCN3C)nc3cc(-c4cccc5cccc(Cl)c45)c4c(c23)OCCC4)C[C@@H]1CC#N (single isomer, unassigned) [Compound B104] | 8.16 nM
15 | C=C(F)C(=O)N1CCN(c2nc(OC[C@H]3CCCN3C)nc3cc(-c4cccc5cccc(Cl)c45)c4c(c23)OCCC4)C[C@@H]1CC#N (single isomer, unassigned) [Compound B105] | 290 nM
16 | C=C(F)C(=O)N1CCN(c2nc(OC[C@H]3C[C@@H](OC)CN3C)nc3cc(-c4cccc5cccc(Cl)c45)c4c(c23)OCCC4)C[C@@H]1CC#N (single isomer, unassigned) [Compound B106] | 9.54 nM

Row | SMILES | IC50
17 | C=C(F)C(=O)N1CCN(c2nc(OC[C@H]3C[C@@H](OC)CN3C)nc3cc(-c4cccc5cccc(Cl)c45)c4c(c23)OCCC4)C[C@@H]1CC#N (single isomer, unassigned) [Compound B107] | 3.26 nM
18 | C=C(F)C(=O)N1CCN(c2nc(OC[C@@H]3CCCN3C)nc3cc(-c4c(Cl)c(C)cc5[nH]ncc45)c4c(c23)OCCC4)C[C@@H]1CC#N (single isomer, unassigned; atropisomer1) [Compound B12] | 4.6 nM
19 | C=C(F)C(=O)N1CCN(c2nc(OC[C@@H]3CCCN3C)nc3cc(-c4c(Cl)c(C)cc5[nH]ncc45)c4c(c23)OCCC4)C[C@@H]1CC#N (single isomer, unassigned; atropisomer 2) [Compound B13] | 325 nM
20 | C=CC(=O)N1CCN(c2ncnc3cc(-c4cccc5ccccc45)c4c(c23)OC(C)(C)CC4)CC1 [Compound A1, 1-(4-(2,2-dimethyl-5-(naphthalen-1-yl)-3,4-dihydro-2H-pyrano[2,3-f]quinazolin-10-yl)piperazin-1-yl)prop-2-en-1-one] | 5500 nM
21 | C=CC(=O)N1CCN(c2ncnc3cc(-c4c(O)cccc4F)c4c(c23)OC(C)(C)CC4)CC1 [Compound A2, 1-(4-(5-(2-fluoro-6-hydroxyphenyl)-2,2-dimethyl-3,4-dihydro-2H-pyrano[2,3-f]quinazolin-10-yl)piperazin-1-yl)prop-2-en-1-one] | 2120 nM
22 | C=CC(=O)N1CCN(c2ncnc3cc(-c4c(O)cccc4F)c4c(c23)OC(C)(C)CC4)C[C@@H]1CC#N [Compound A3, 2-((2S)-1-acryloyl-4-(5-(2-fluoro-6-hydroxyphenyl)-2,2-dimethyl-3,4-dihydro-2H-pyrano[2,3-f]quinazolin-10-yl)piperazin-2-yl)acetonitrile] | 559 nM
23 | C=CC(=O)N1CCN(c2ncnc3cc(-c4c(O)cccc4F)c4c(c23)OCCC4)C[C@@H]1CC#N [Compound A4, 2-((2S)-1-acryloyl-4-(5-(2-fluoro-6-hydroxyphenyl)-3,4-dihydro-2H-pyrano[2,3-f]quinazolin-10-yl)piperazin-2-yl)acetonitrile] | 89.6 nM
24 | C=CC(=O)N1CC2(CCN(c3ncnc4cc(-c5c(O)cccc5F)c5c(c34)OCCC5)CC2)C1 [Compound A5, 1-(7-(5-(2-fluoro-6-hydroxyphenyl)-3,4-dihydro-2H-pyrano[2,3-f]quinazolin-10-yl)-2,7-diazaspiro[3.5]nonan-2-yl)prop-2-en-1-one] | 1690 nM
25 | C=CC(=O)N1CC2CN(c3ncnc4cc(-c5c(O)cccc5F)c5c(c34)OC(C)(C)CC5)CC2C1 (centres unmarked) [Compound A6, 1-(5-(5-(2-fluoro-6-hydroxyphenyl)-2,2-dimethyl-3,4-dihydro-2H-pyrano[2,3-f]quinazolin-10-yl)hexahydropyrrolo[3,4-c]pyrrol-2(1H)-yl)prop-2-en-1-one] | 3540 nM
26 | C=CC(=O)N1CCN(c2ncnc3cc(-c4cccc5ccccc45)c4c(c23)OCCC4)C[C@@H]1CC#N [Compound A7, (S)-2-(1-acryloyl-4-(5-(naphthalen-1-yl)-3,4-dihydro-2H-pyrano[2,3-f]quinazolin-10-yl)piperazin-2-yl)acetonitrile] | 43.1 nM
27 | C=CC(=O)N1CCN(c2ncnc3cc(-c4cccc5ccccc45)c4c(c23)OCC=C4)C[C@@H]1CC#N [Compound A8, (S)-2-(1-acryloyl-4-(5-(naphthalen-1-yl)-2H-pyrano[2,3-f]quinazolin-10-yl)piperazin-2-yl)acetonitrile] | 82.1 nM
28 | C=CC(=O)N1CCN(c2ncnc3cc(-c4c(C)ccc5[nH]ncc45)c4c(c23)OCC=C4)C[C@@H]1CC#N [Compound A9, 2-((2S)-1-acryloyl-4-(5-(5-methyl-1H-indazol-4-yl)-2H-pyrano[2,3-f]quinazolin-10-yl)piperazin-2-yl)acetonitrile] | 218 nM
29 | C=CC(=O)N1CCN(c2ncnc3cc(-c4c(C)ccc5[nH]ncc45)c4c(c23)OCCC4)C[C@@H]1CC#N [Compound A10, 2-((2S)-1-acryloyl-4-(5-(5-methyl-1H-indazol-4-yl)-3,4-dihydro-2H-pyrano[2,3-f]quinazolin-10-yl)piperazin-2-yl)acetonitrile] | 598 nM
30 | C=CC(=O)N1CCN(c2ncnc3cc(-c4cc(C)cc5[nH]ncc45)c4c(c23)OCCC4)C[C@@H]1CC#N [Compound A11, (S)-2-(1-acryloyl-4-(5-(6-methyl-1H-indazol-4-yl)-3,4-dihydro-2H-pyrano[2,3-f]quinazolin-10-yl)piperazin-2-yl)acetonitrile] | 799 nM
31 | C=CC(=O)N1CCN(c2ncnc3cc(-c4cccc5ccccc45)c4c(c23)OCCC4)CC1 [Compound A12, 1-(4-(5-(naphthalen-1-yl)-3,4-dihydro-2H-pyrano[2,3-f]quinazolin-10-yl)piperazin-1-yl)prop-2-en-1-one] | 1660 nM
32 | C=CC(=O)N1CCN(c2ncnc3cc(-c4c(C)ccc5[nH]ncc45)c4c(c23)OCCC4)CC1 [Compound A13, 1-(4-(5-(5-methyl-1H-indazol-4-yl)-3,4-dihydro-2H-pyrano[2,3-f]quinazolin-10-yl)piperazin-1-yl)prop-2-en-1-one] | 3310 nM
